In ChEMBL document CHEMBL4808217, “Design, Synthesis, and Characterization of 4-Aminoquinazolines as Potent Inhibitors of the G Protein-Coupled Receptor Kinase 6 (GRK6) for the Treatment of Multiple Myeloma” (J Med Chem, 2021):

Legend:
[1] = target: T1, G protein-coupled receptor kinase 6 (Homo sapiens, UniProt P43250); assay: Inhibition of recombinant full-length human GRK6 using casein as substrate measured after 80 mins in presence of [gamma33P]ATP by radiometric scintillation counting method
Aurora kinase A = target: T2, Aurora kinase A (Homo sapiens, UniProt O14965); assay: Inhibition of recombinant full length human Aurora A using LRRASLG as substrate incubated for 40 mins in presence of [gamma-33ATP] by radiometric scintillation counting method
T2 sequence (O14965 whole entry): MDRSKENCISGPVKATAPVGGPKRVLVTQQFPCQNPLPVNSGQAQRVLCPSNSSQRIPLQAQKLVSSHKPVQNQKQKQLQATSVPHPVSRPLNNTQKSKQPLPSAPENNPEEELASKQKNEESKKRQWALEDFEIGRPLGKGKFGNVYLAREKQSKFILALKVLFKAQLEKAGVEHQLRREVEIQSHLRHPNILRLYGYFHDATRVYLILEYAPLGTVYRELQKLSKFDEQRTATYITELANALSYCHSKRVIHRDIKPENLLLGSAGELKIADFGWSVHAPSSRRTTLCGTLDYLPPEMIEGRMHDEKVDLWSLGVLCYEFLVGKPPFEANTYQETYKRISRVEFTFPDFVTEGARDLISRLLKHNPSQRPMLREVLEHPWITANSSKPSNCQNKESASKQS

[2] = target: Insulin-like growth factor 1 receptor (Homo sapiens, UniProt P08069); assay: Inhibition of recombinant human IGF-1R (959 to end residues) using KKKSPGEYVNIEF as substrate incubated for 40 mins in presence of [gamma-33ATP] by radiometric scintillation counting method
[3] = target: T1, G protein-coupled receptor kinase 6; assay: Binding affinity to FLAG-tagged GRK6 in human KMS11 cells incubated for […] by ITDR assay; assay type: cell-based, KMS-11

Insulin-like growth factor 1 receptor, sequence (P08069 31-736 limits assumed): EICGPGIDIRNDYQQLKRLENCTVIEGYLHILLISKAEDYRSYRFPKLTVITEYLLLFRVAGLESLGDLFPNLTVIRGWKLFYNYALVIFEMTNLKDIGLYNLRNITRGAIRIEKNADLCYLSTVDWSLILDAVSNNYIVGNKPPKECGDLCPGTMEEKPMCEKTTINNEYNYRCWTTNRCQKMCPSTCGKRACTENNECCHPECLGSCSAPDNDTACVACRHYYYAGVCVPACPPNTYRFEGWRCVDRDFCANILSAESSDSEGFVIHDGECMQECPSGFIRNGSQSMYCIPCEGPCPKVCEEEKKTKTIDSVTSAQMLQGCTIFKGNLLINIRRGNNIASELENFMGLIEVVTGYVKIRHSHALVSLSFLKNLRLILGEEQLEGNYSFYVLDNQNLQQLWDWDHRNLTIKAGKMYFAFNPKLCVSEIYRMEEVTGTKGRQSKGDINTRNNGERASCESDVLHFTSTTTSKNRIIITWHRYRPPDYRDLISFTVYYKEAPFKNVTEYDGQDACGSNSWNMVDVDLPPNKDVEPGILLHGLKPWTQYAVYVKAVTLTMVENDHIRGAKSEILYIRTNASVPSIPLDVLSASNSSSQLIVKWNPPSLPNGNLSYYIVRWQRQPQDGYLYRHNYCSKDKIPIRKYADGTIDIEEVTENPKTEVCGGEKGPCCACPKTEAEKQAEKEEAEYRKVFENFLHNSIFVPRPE
Insulin-like growth factor 1 receptor, sequence (P08069 741-1367 limits assumed): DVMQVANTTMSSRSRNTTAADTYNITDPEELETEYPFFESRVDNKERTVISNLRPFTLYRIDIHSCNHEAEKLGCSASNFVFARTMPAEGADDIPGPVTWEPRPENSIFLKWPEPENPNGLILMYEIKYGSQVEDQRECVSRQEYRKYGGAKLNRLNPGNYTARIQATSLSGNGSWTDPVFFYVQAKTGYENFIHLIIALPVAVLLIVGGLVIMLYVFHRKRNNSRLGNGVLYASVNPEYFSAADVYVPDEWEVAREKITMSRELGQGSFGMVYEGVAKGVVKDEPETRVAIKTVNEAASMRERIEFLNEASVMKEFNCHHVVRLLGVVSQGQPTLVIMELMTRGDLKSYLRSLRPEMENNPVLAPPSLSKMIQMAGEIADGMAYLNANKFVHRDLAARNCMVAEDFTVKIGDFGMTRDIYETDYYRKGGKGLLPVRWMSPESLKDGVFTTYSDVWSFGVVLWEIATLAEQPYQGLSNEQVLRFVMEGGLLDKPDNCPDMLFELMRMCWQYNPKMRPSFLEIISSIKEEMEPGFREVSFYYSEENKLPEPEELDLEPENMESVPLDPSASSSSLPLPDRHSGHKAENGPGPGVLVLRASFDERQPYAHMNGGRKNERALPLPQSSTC
T1 sequence (P43250 whole entry): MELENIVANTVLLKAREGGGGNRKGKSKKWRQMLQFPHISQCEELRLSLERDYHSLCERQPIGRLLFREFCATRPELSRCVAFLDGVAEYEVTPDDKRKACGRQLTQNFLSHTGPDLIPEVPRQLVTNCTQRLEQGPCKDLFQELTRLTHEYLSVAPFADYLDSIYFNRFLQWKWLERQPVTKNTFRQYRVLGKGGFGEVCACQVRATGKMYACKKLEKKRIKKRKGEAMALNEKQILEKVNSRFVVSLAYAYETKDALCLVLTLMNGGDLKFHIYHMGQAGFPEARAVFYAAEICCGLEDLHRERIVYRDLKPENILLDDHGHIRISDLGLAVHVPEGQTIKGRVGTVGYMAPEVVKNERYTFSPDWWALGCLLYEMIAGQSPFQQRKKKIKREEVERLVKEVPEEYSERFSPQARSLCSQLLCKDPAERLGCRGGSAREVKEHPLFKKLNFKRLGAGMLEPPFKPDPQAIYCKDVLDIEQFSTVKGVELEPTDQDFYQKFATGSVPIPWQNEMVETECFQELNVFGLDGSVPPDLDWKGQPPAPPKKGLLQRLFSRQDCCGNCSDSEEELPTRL

Row | SMILES | IC50 [1] [nM] | IC50 (Aurora kinase A) [nM] | IC50 [2] [nM] | IC50 [3] [nM]
1 | CCc1cc(Nc2nc(NCCc3ccc(F)cc3)nc3ccccc23)n[nH]1 | 190 | 41 |  | 
2 | CCc1cc(Nc2nc(NCCc3ccccc3)nc3cccc(F)c23)n[nH]1 | 20 |  |  | 
3 | CCc1cc(Nc2nc(NCc3ccc(Cl)cc3)nc3cccc(C)c23)n[nH]1 | 27 | 1200 | > 10000 | 
4 | CCc1cc(Nc2nc(NCc3ccc(Cl)cc3)nc3cccc(OC)c23)n[nH]1 | 16 | > 10000 | > 10000 | 2000
5 | CCc1cc(Nc2nc(NCCc3ccc(F)cc3)nc3cc(Cl)ccc23)n[nH]1 | 1100 |  |  | 
6 | CCc1cc(Nc2nc(N[C@@H](C)c3ccc(C)cc3)nc3cccc(F)c23)n[nH]1 | 27 | 75 |  | 
7 | CCc1cc(Nc2nc(N[C@@H](C)c3ccc(F)cn3)nc3cccc(C)c23)n[nH]1 | 11 | 330 |  | 610
8 | CCn1cnc(Nc2nc(N[C@@H](C)c3ccc(F)cn3)nc3cccc(F)c23)c1 | 280 |  |  | 
9 | CCc1cc(Nc2nc(N[C@@H](C)c3ccc(F)cc3)nc3cc(Cl)ccc23)n[nH]1 | 440 |  |  | 
10 | CCc1cc(Nc2nc(NCCc3ccc(F)cc3)nc3ccc(F)cc23)n[nH]1 | 310 |  |  | 
11 | CCOc1ccc(Nc2nc(N[C@@H](C)c3ccc(F)cn3)nc3cccc(F)c23)cn1 | > 10000 |  |  | 
12 | Fc1cccc2nc(NCCc3ccccc3)nc(Nc3ccon3)c12 | > 10000 |  |  | 
13 | CCc1cc(Nc2nc(NCCN3CCOCC3)nc3cccc(F)c23)n[nH]1 | 1400 |  |  | 
14 | CCc1cc(Nc2nc(N[C@@H](C)c3ccc(F)cc3)nc3cc(F)ccc23)n[nH]1 | 100 |  |  | 
15 | CCc1cc(Nc2nc(NCCc3ccc(F)cc3)nc3ccc(OC)cc23)n[nH]1 | 460 |  |  | 
16 | CCc1cc(Nc2nc(N[C@@H](C)c3ccc(F)cc3)nc3ccc(OC)cc23)n[nH]1 | 140 |  |  | 
17 | CCc1cc(Nc2nc(NCc3ccc(F)cc3)nc3ccccc23)n[nH]1 | 250 |  |  | 
18 | CCc1cc(Nc2nc(N[C@@H](C)c3ccc(C#N)cn3)nc3cccc(F)c23)n[nH]1 | 91 | 220 |  | 
19 | CCc1cc(Nc2nc(N[C@@H](C)c3ccc(OC)cc3)nc3ccccc23)n[nH]1 | 290 |  |  | 
20 | CCc1cc(Nc2nc(N[C@@H](C)C3CCCCC3)nc3ccccc23)n[nH]1 | 960 |  |  | 
21 | Fc1cccc2nc(NCCc3ccccc3)nc(Nc3cc[nH]n3)c12 | 2500 |  |  | 
22 | CCc1cc(Nc2nc(NCc3ccc(Cl)cc3OC)nc3cccc(C)c23)n[nH]1 | 6 | 1200 |  | 170
23 | CCc1cc(Nc2nc(NCCc3ccc(F)cc3)nc3cc(F)ccc23)n[nH]1 | 180 |  |  | 
24 | CCc1cc(Nc2nc(NCCc3ccccc3)nc3cccc(OC)c23)n[nH]1 | 10 | > 10000 | > 10000 | 
25 | CCc1cc(Nc2nc(N[C@@H](C)c3ccc(F)cc3)nc3ccc(F)cc23)n[nH]1 | 160 |  |  | 

Second part, the molecule after the results:

Row | IC50 [1] [nM] | IC50 (Aurora kinase A) [nM] | IC50 [2] [nM] | IC50 [3] [nM] | SMILES
26 | 1400 |  |  |  | CCc1cc(Nc2nc(N[C@H](C)c3ccc(F)cc3)nc3ccccc23)n[nH]1
27 | 120 | 11 |  |  | CCc1cc(Nc2nc(N[C@@H](C)c3ccc(F)cc3)nc3ccccc23)n[nH]1
28 | 3.5 | 22000 |  |  | CCc1cc(Nc2nc(N[C@@H](C)c3ccc(Cl)cn3)nc3cccc(OC)c23)n[nH]1
29 | 230 | 80 |  |  | CCc1cc(Nc2nc(N[C@@H](C)c3ncc(F)cn3)nc3cccc(F)c23)n[nH]1
30 | 280 |  |  |  | CCc1cc(Nc2nc(NC3(c4ccc(Cl)cc4)CC3)nc3ccccc23)n[nH]1
31 | 29 | 25 |  |  | CCc1cc(Nc2nc(N[C@@H](C)c3ccc(F)cn3)nc3cccc(F)c23)n[nH]1
32 | 110 | 180 |  |  | CCc1cc(Nc2nc(NCCc3ccc(F)cc3)nc3cccc(F)c23)n[nH]1
33 | 70 |  |  |  | CCc1cc(Nc2nc(N[C@@H](C)c3ccc(Cl)cc3)nc3ccccc23)n[nH]1
34 | 41 | 51 |  |  | CCc1cc(Nc2nc(N[C@@H](C)c3ccc(F)cc3)nc3cccc(F)c23)n[nH]1
35 | 340 |  |  |  | CCc1cc(Nc2nc(N[C@@H](C)c3cccc(F)c3)nc3ccccc23)n[nH]1
36 | 40 |  |  |  | CCc1cc(Nc2nc(NCc3ccc(Cl)cc3OC)nc3ccccc23)n[nH]1
